Experimental data from ChEMBL document CHEMBL1128012, “Non-peptide-based inhibitors of human immunodeficiency virus-1 protease” (Bioorg Med Chem Lett, 1994).

Assays:
[1] = molecular target: T1, Human immunodeficiency virus type 1 protease (Human immunodeficiency virus 1, UniProt Q72874); assay: Inhibitory activity was evaluated against HIV-1 protease
[2] = molecular target: T1, Human immunodeficiency virus type 1 protease; assay: Inhibitory activity was evaluated against HIV-1 protease; Not Active

Row | SMILES | IC50 [1] [µM] | IC50 [2]
1 | O=C1N(Cc2ccccc2)C(Cc2ccccc2)P(=O)(O)C(Cc2ccccc2)N1Cc1ccccc1 (stereo not drawn) | 21 | 
2 | COP1(=O)C(Cc2ccccc2)N(Cc2ccc(CO)cc2)C(=O)N(Cc2ccc(CO)cc2)C1Cc1ccccc1 (stereo not drawn) |  | Not Active
3 | O=C1N(Cc2ccc(CBr)cc2)C(Cc2ccccc2)P(=O)(O)C(Cc2ccccc2)N1Cc1ccc(CBr)cc1 (racemic) | 0.7 | 
4 | O=C1N(Cc2ccc3ccccc3c2)C(Cc2ccccc2)P(=O)(O)C(Cc2ccccc2)N1Cc1ccc2ccccc2c1 (racemic) | 0.26 | 
5 | O=C1N(Cc2ccc(CO)cc2)C(Cc2ccccc2)P(=O)(O)C(Cc2ccccc2)N1Cc1ccc(CO)cc1 (stereo not drawn) | 4.8 | 
6 | COP1(=O)C(Cc2ccccc2)N(Cc2ccccc2)C(=O)N(Cc2ccccc2)C1Cc1ccccc1 (stereo not drawn) |  | Not Active
7 | COP1(=O)C(Cc2ccccc2)NC(=O)NC1Cc1ccccc1 (stereo not drawn) |  | Not Active
8 | COP1(=O)C(Cc2ccccc2)N(Cc2ccc(CBr)cc2)C(=O)N(Cc2ccc(CBr)cc2)C1Cc1ccccc1 (stereo not drawn) |  | Not Active
9 | COP1(=O)C(Cc2ccccc2)N(Cc2ccc3ccccc3c2)C(=O)N(Cc2ccc3ccccc3c2)C1Cc1ccccc1 (stereo not drawn) |  | Not Active
10 | O=C1NC(Cc2ccccc2)P(=O)(O)C(Cc2ccccc2)N1 (racemic) | > 100 | 
11 | O=C1NC(Cc2ccccc2)P(=O)(O)C(Cc2ccccc2)N1 (stereo not drawn) | > 100 | 
12 | O=C1N(Cc2ccc(CBr)cc2)C(Cc2ccccc2)P(=O)(O)C(Cc2ccccc2)N1Cc1ccc(CBr)cc1 (stereo not drawn) | 18 | 
13 | O=C1N(Cc2ccc(CO)cc2)C(Cc2ccccc2)P(=O)(O)C(Cc2ccccc2)N1Cc1ccc(CO)cc1 (racemic) | 0.24 | 
